The text below walks through data of patent US7297707B2, “Benzothiazolyl derivatives” (Hoffmann-La Roche Inc., priority 2003, dated 2007).

For assay [1] the following is noted: doses of 5, 10 and 20 mg daily; cited from earlier work.
In assay [2] the target is T1, human cannabis CB1 receptor (Homo sapiens, UniProt P21554).
T1 construct: expressed in transfected cells; host or cells: human embryonic kidney (HEK) cells, Semliki Forest Virus system, membrane preparation
The experiment in a line: Affinity for cannabinoid CB1 receptors, [3H]-CP-55,940 radioligand binding on HEK cell membranes. The conditions noted are these: affinity for the CB1 receptor, [3H]-CP-55,940, HEK membranes. As to the method: The affinity of the compounds of the invention for cannabinoid CB1 receptors was determined using membrane preparations of human embryonic kidney (HEK) cells in which the human cannabis CB1 receptor is transiently transfected using the Semliki Forest Virus system in conjunction with [3H]-CP-55,940 as radioligand. After incubation of a freshly prepared cell membrane preparation with the [3H]-ligand, with or without addition of compounds of the invention, separation of bound and free ligand was performed by filtration over glassfiber filters. Radioactivity on the filter was measured by liquid scintillation counting.

T1 sequence (P21554 whole entry): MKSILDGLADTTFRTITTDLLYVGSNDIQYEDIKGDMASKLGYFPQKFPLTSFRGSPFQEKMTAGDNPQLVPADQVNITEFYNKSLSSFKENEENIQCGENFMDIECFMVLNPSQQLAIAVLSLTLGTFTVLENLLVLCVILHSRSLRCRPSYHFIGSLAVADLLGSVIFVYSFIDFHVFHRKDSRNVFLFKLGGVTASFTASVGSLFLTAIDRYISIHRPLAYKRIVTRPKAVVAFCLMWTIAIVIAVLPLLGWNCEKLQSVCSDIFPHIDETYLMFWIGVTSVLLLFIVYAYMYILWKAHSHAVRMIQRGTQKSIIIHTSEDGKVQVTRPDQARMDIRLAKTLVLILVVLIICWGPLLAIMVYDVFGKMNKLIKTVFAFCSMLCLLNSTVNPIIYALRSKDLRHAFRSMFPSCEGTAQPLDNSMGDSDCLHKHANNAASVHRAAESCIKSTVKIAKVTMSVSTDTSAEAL

In the case of `Cc1c(C(=O)NN2CCCCC2)nn(-c2ccc(Cl)cc2Cl)c1-c1ccc(Cl)cc1` [SR141716A], the “body weight compared to placebo” value in assay [1] was “significantly reduced body weight”.
`CCN(CC)c1ccc(N(C(=O)c2ccc([N+](=O)[O-])cc2Cl)c2nc3ccccc3s2)cc1` [Example 28, N-Benzothiazol-2-yl-2-chloro-N-(4-diethylamino-phenyl)-4-nitro-benzamide]: the IC50 in assay [2] came out at 1.38 µM.
The same measure, in the same setting: under `COc1ccc(N(C(=O)c2ccc(C(F)(F)F)cc2F)c2nc3ccccc3s2)cc1` [Example 9, N-Benzothiazol-2-yl-2-fluoro-N-(4-methoxy-phenyl)-4-trifluoromethyl-benzamide] stands 1.96 µM.
Same read-out and setting: the result for `COc1ccc(N(C(=O)c2ccccc2Cl)c2nc3ccc(NS(=O)(=O)N(C)C)cc3s2)cc1OC` [Example 57, N-[6-(Dimethylamino-1-sulfonylamino)-benzothiazol-2-yl]-2-chloro-N-(3,4-dimethoxy-phenyl)-benzamide] reads 1.42 µM; that for `COc1ccc(N(C(=O)c2ccc(Cl)cc2Cl)c2nc3ccc(NC(=O)Cc4ccccc4)cc3s2)cc1OC` [Example 52, 2,4-Dichloro-N-(3,4-dimethoxy-phenyl)-N-(6-phenylacetylamino-benzothiazol-2-yl)-benzamide], 1.59 µM.
Still for that read-out and setting: the result for `COc1ccc(N(C(=O)c2ccc([N+](=O)[O-])cc2Cl)c2nc3ccccc3s2)cc1` [Example 12, N-Benzothiazol-2-yl-2-chloro-N-(4-methoxy-phenyl)-4-nitro-benzamide] reads 2.48 µM; that for `Cc1cc(Cl)ccc1N(C(=O)c1ccc(Cl)cc1Cl)c1nc2ccccc2s1` [Example 8, N-Benzothiazol-2-yl-2,4-dichloro-N-(4-chloro-2-methyl-phenyl)-benzamide], 0.73 µM.
In assay [2], `COc1ccc(N(C(=O)c2ccc(Cl)cc2Cl)c2nc3ccc(N)cc3s2)cc1OC` [Example 45, N-(6-Amino-benzothiazol-2-yl)-2,4-dichloro-N-(3,4-dimethoxy-phenyl)-benzamide] showed an IC50 of 0.83 µM.
